Data set [1] can be described thus: Particle characteristics of the prepared formulation by particle size analyzer (Dynamic Light Scattering, DLS). Format: physicochemical. To be noted: mRNA formulation, compound:DOPE:Cholesterol:DMG-PEG=50:10:38.5:1.5, N/P ratio 6; for PDI (PI) / Z-average: DLS. As for the experimental part: (§1) According to the following table 1, the materials required for preparing the formulation were dissolved in each dilution solvent and prepared at the required concentration. When dissolving, the materials were kept at room temperature and then the solvent was added to dissolve them.
(§2) The required amounts of the raw materials were mixed in order to meet the N/P ratio (amine group of lipid/phosphate group of mRNA) of 6 and each compound of formulas A to G:DOPE:Cholesterol:DMG-PEG=50:10:38.5:1.5. Ethanol was added to the ethanol layer so that the molecular total of all raw materials was within 12.5 mM, and the aqueous phase and ethanol phase were mixed maintaining a volume ratio of 3:1. After the mixing, to reduce the total ethanol content, buffer exchange was performed as follows: The mixture solution was concentrated by centrifugation at 4,000 rpm using an Amicon-Ultra tube filter (Merk Millipore, UFC505096 or UFC805024, pore size: 50K, volume: 15 mL), then diluted with PBS and centrifuged to concentrate. This process was repeated to exchange the buffer.
(§3) The more concrete procedure is as follows: • 1) Two autoclaved tubes were prepared (tubes (A) and (B)). • 2) In tube (A), each compound of formulas A to G, DOPE, cholesterol and DMG-PEG in molar quantities calculated according to the experimental conditions were sequentially added and mixed by vortexing. • 3) In the ethanol phase, when necessary, ethanol was added so that the molecular total of all raw materials was within 12.5 mM. • 4) In tube (B), mRNA and 20 mM sodium acetate buffer (pH 4.6) were mixed. At that time, the ratio was calculated and added so that the aqueous phase was total three times the amount of the ethanol phase. • 5) Mixing of Tube (A) and Tube (B) was performed using a Microfluidics (Ignite, Precision Nanosystem) device. Microfluidics operating conditions were FRR (Flow Rate Ratio) of C:R=3:1 and […] (Total Flow Rate) of 12 mL/min. • 6) The resulting mixture from step 5) was centrifuged at 4,000 rpm using an Amicon-Ultra tube filter (50K), and the process of concentration and dilution was repeated to remove excess ethanol, and then concentrated to a final x mg/ml (theoretical concentration).
(§4) • 1) For the prepared formulation, particle characteristics were confirmed using a particle size analyzer (Dynamic Light Scattering, DLS), and the results are shown in Table 2 below. • 2) For the prepared formulation, mRNA encapsulation efficiency was confirmed through Ribo-green assay, and the results are shown in Table 1 below.

Data set [2] in a line: mRNA encapsulation efficiency by Ribo-green assay. To be noted: mRNA formulation, compound:DOPE:Cholesterol:DMG-PEG=50:10:38.5:1.5, N/P ratio 6. Format: physicochemical. As for the experimental part: as §1, §2, §3, §4

The structures appear in SMILES notation.

For the compound `CCCCCCCCCCC(OC(=O)CCCCCCCN(C)CCCCCCCC(=O)OC(CCCCCCCCCC)C1CC1)C1CC1` (centres unmarked) [Formula C], in data set [1], the Zeta-potential is reported as −7.57 ± 4.12 mV, the “PDI (PI)” value was determined as 0.12 ± 0.00 and the Z-average came out at 120.0 ± 2.38 nm. Besides, in data set [2], the Encapsulation efficiency was 95.4 ± 0.2%.

Regarding `CCCCCCCCC(OC(=O)CCCCCCCN(C)CCCCCCCC(=O)OC(CCCCCCCC)C1CC1)C1CC1` (centres unmarked) [Formula A], in data set [1], the Zeta-potential is −10.96 ± 2.69 mV, the “PDI (PI)” value came to 0.09 ± 0.01 and the Z-average is 135.0 ± 0.46 nm.

In the case of `CCCCCCC(OC(=O)CCCCCCCN(C)CCCCCCCC(=O)OC(CCCCCC)C1CC1)C1CC1` (centres unmarked) [Formula G], in data set [1], the Zeta-potential is −6.93 ± 1.48 mV, the “PDI (PI)” value was found to be 0.17 ± 0.02 and the Z-average came out at 194.9 ± 3.59 nm. Besides, in data set [2], the Encapsulation efficiency turned out to be 92.1 ± 0.1%.

With `CCCCCCCCC(OC(=O)CCCCCCCN(C)CCCCCCCC(=O)OC(CCCCCCCC)C1CCCCC1)C1CCCCC1` (centres unmarked) [Formula D], in data set [1], the Zeta-potential was −2.37 ± 0.39 mV, the “PDI (PI)” value worked out at 0.07 ± 0.04 and the Z-average was 154.6 ± 2.75 nm. Also, the Encapsulation efficiency in data set [2] came to 97.6 ± 0.2%.

Turning to `CCCCCCC(OC(=O)CCCCCN(C)CCCCCC(=O)OC(CCCCCC)C1CC1)C1CC1` (centres unmarked) [Formula B], in data set [1], the Zeta-potential is reported as −4.30 ± 3.03 mV, the “PDI (PI)” value was found to be 0.12 ± 0.03 and the Z-average amounted to 183.3 ± 2.86 nm.

Consider `CCCCCCCCC(C(=O)OCCCCCCCN(C)CCCCCCCOC(=O)C(CCCCCCCC)C1CC1)C1CC1` (centres unmarked) [Formula F], for which, in data set [1], the Zeta-potential is −6.24 ± 3.13 mV, the “PDI (PI)” value came out at 0.12 ± 0.02 and the Z-average is reported as 131.5 ± 0.12 nm. Moreover, the Encapsulation efficiency in data set [2] is listed as 91.1 ± 0.2%.

Turning to `CCCCCCCCC(OC(=O)CCCCCCCN(CCO)CCCCCCCC(=O)OC(CCCCCCCC)C1CC1)C1CC1` (centres unmarked) [Formula E], in data set [1], the Zeta-potential is listed as −4.69 ± 1.56 mV, the “PDI (PI)” value came out at 0.10 ± 0.04 and the Z-average was determined as 127.4 ± 0.52 nm. Moreover, in data set [2], the Encapsulation efficiency turned out to be 98.4 ± 0.5%.

For the origin of these results see US20260209171A1, “CATIONIC LIPIDS AND MANUFACTURING METHOD THEREFOR” (SAMYANG HOLDINGS CORPORATION, priority 2022, published 2026).
